{"source": "patent US20140371237A1", "about": "“p19Arf, HMGA2 and MDM2 For Use in the Diagnosis and Treatment of Aberrant Cell Growth” (University of Bremen, priority 2010, published 2014)", "assay_type_in_all_cases": "cell-based, human", "key": {"[1]": {"test_system": "leiomyoma explants and matching myometrium", "experiment": "Nutlin-3 sensitivity of leiomyoma explants compared with matching myometrium (qRT-PCR p21, BAX)", "text": "As disclosed herein and in [7], leiomyomas show elevated levels of p14^Arf mRNA compared to myometrium resulting from a negative feedback-loop between p53 and MDM2 which in turn results in an activation of MDM2. Furthermore, without intending to be bound by theory, it was hypothesized herein and in [11] that within the p14^Arf-driven pathway a delicate balance between p53 and MDM2 assures the proliferative activity of leiomyomas as well as their genomic integrity. Accordingly, it can be speculated that leiomyomas may be more sensitive against MDM2 inhibition than matching myometrium.\nAltogether, tissue samples of 36 patients have been investigated herein; see Table 1 in FIGS. 20A and 20B. The study was approved by the local ethics committee and prior to surgery; informed written consent was obtained from all patients. For gene expression studies samples of 52 UL from 31 patients along with matching myometrium were taken during surgery, immediately frozen in liquid nitrogen, and stored at −80° C. for RNA isolation and qRT-PCR analyses of p14^Arf. For MDM2 inhibition six tissue samples of UL from four patients as well as matching myometrium were taken during surgery and immediately transferred into sterile Hank's solution.\n(§1) […] As controls tissue explants were incubated in medium 199 supplemented with 20% FCS without nutlin-3 for 72 h.\nAbout 250 ng of total RNA were reverse transcribed with 200 U/μl of M-MLV reverse transcriptase (Invitrogen, Karlsruhe, Germany), RNase Out, 150 ng random hexamers and 10 mM dNTPs according to the manufacturer's instructions. RNA was denatured at 65° C. for 5 min and subsequently kept on ice for 1 min. After adding the enzyme to the RNA primer mixes, samples were incubated for 10 min at 25° C. to allow annealing of the random hexamers. Reverse transcription was performed at 37° C. for […] followed by inactivation of the reverse transcriptase at 70° C. for 15 min.\nRelative quantification of transcription levels was carried out by real-time PCR analyses using the Applied Biosystems 7300 real-time PCR system (Applied Biosystems, Darmstadt, Germany). Commercially available gene expression assays (Applied Biosystems, Darmstadt, Germany) were used for quantification of mRNA of human p14^Arf (Hs00924091), BAX (Hs00180269_m1), CDKN1A (Hs 99999142), and MKI67 (Hs00606991_m1). HPRT served as endogenous control. All qRT-PCR experiments were done in triplicate."}, "[2]": {"test_system": "p53 in explants from an UL", "experiment": "Western blot analysis of p53 in UL explants treated with nutlin-3", "details": "explants of case 0700-1, 30 μM and 50 μM, 72 h", "method": "Nutlin-3 acts as an inhibitor of MDM2 which in turn destabilizes p53. To see whether the increased expression of the senescence and apoptotic markers noted after treatment of the explants with nutlin-3 was indeed due to an elevated level of p53, explants of case 0700-1 treated with 30 μM and 50 μM nutlin-3, respectively, for 72 h were used for immunoblot analyses.\nFor treatment with nutlin-3 (Biomol, Hamburg, Germany) tissue samples were minced into small pieces of approximately 0.5 cm diameter and incubated in medium 199 supplemented with 20% FCS and nutlin-3 (3, 10, or 50 μM) for 72 h. As controls tissue explants were incubated in medium 199 supplemented with 20% FCS without nutlin-3 for 72 h.\nProtein extracts were obtained using RIPA buffer and concentrations were determined using a BCA protein assay (Thermo Scientific, Rockford, USA) according to the manufacturer's instructions. Total protein (16 μg per lane) was separated using a SDS-polyacrylamide gel and transferred onto a nitrocellulose membrane. SeeBlue Plus2 Pre-Stained Standard (Invitrogen, Karlsruhe, Germany) was used as marker. […]"}, "[3]": {"test_system": "p53 in tissue explants (UL and matching myometrium)", "experiment": "Immunohistochemical staining for p53 of tissue explants treated with nutlin-3", "method": "as §1\nThe immunohistochemical staining for the p53 protein (clone DO-7, DAKO, Glostrup, Denmark) was performed using a detection kit (DAKO ChemMate, DAKO, Glostrup, Denmark) and a semi-automated stainer (DAKO TechMate, DAKO, Glostrup, Denmark) according to the specifications of the manufacturer. For antigen retrieval the slides were treated in a PT Link module (DAKO, Glostrup, Denmark) using the EnVision™ FLEX Target Retrieval Solution, Low pH (DAKO, Glostrup, Denmark). The antibody dilution was 1:100."}, "[4]": {"details": "case 0687-0, 10 μM, 72 h (control 0)"}, "[5]": {"details": "case 0687-0, 30 μM, 72 h (control 0)"}, "[6]": {"details": "case 0687-1, 10 μM, 72 h (control 0)"}, "[7]": {"details": "case 0695-0, 10 μM, 6 days (control 0)"}, "[8]": {"details": "case 0695-0, 30 μM, 6 days (control 0)"}, "[9]": {"details": "case 0695-1, 10 μM, 6 days (control 0)"}, "[10]": {"details": "case 0695-1, 30 μM, 6 days (control 0)"}, "[11]": {"details": "case 0695-2, 10 μM, 6 days (control 0)"}, "[12]": {"details": "case 0695-2, 30 μM, 6 days (control 0)"}, "[13]": {"details": "case 0695-3, 10 μM, 6 days (control 0)"}, "[14]": {"details": "case 0695-3, 30 μM, 6 days (control 0)"}}}
{"smiles": "COc1ccc(C2=N[C@@H](c3ccc(Cl)cc3)[C@@H](c3ccc(Cl)cc3)N2C(=O)N2CCNC(=O)C2)c(OC(C)C)c1", "note": "[nutlin-3]", "values": [{"measurement": "BAX expression, sensitivity of leiomyoma explants versus matching myometrium", "setting": "[1]; 3 μM and 10 μM, 72 h", "result": "generally higher sensitivity of the leiomyoma explants"}, {"measurement": "p21 expression in fibroids versus matching myometrial tissue", "setting": "[1]; 3 μM and 10 μM, 72 h, all tissue explants treated", "result": "exceeded that seen in the matching myometrial tissue"}, {"measurement": "BAX expression, myometrium versus leiomyoma, exceptional cases", "setting": "[1]; cases 683 and 687, 10 μM, 72 h", "result": "the expression in the myometrium exceeded that of the leiomyoma"}, {"measurement": "sensitivity of the myometrium to the MDM2 inhibition versus matching fibroids", "setting": "[1]; six days", "result": "reduced sensitivity"}, {"measurement": "amount of p53 (immunoblot)", "setting": "[2]", "result": "concentration-dependent increase"}, {"measurement": "intensity (p53 staining, IHC)", "setting": "[3]; [4]", "result": 1}, {"measurement": "number of p53-positive cells", "setting": "[3]; [4]", "result": 2}, {"measurement": "intensity (p53 staining, IHC)", "setting": "[3]; [5]", "result": 2}, {"measurement": "number of p53-positive cells", "setting": "[3]; [5]", "result": 257}, {"measurement": "intensity (p53 staining, IHC)", "setting": "[3]; [6]", "result": 2}, {"measurement": "number of p53-positive cells", "setting": "[3]; [6]", "result": 398}, {"measurement": "intensity (p53 staining, IHC)", "setting": "[3]; case 0694-2, 10 μM, 72 h (control 0-1)", "result": 2}, {"measurement": "number of p53-positive cells", "setting": "[3]; case 0694-2, 10 μM, 72 h (control 11)", "result": 393}, {"measurement": "intensity (p53 staining, IHC)", "setting": "[3]; case 0694-2, 30 μM, 72 h (control 0-1)", "result": 3}, {"measurement": "number of p53-positive cells", "setting": "[3]; case 0694-2, 30 μM, 72 h (control 11)", "result": "1,277"}, {"measurement": "intensity (p53 staining, IHC)", "setting": "[3]; [7]", "result": 1}, {"measurement": "number of p53-positive cells", "setting": "[3]; [7]", "result": 11}, {"measurement": "intensity (p53 staining, IHC)", "setting": "[3]; [8]", "result": 1}, {"measurement": "number of p53-positive cells", "setting": "[3]; [8]", "result": 188}, {"measurement": "intensity (p53 staining, IHC)", "setting": "[3]; [9]", "result": "0-1"}, {"measurement": "number of p53-positive cells", "setting": "[3]; [9]", "result": 42}, {"measurement": "intensity (p53 staining, IHC)", "setting": "[3]; [10]", "result": 1}, {"measurement": "number of p53-positive cells", "setting": "[3]; [10]", "result": 89}, {"measurement": "intensity (p53 staining, IHC)", "setting": "[3]; [11]", "result": "1-2"}, {"measurement": "number of p53-positive cells", "setting": "[3]; [11]", "result": 194}, {"measurement": "intensity (p53 staining, IHC)", "setting": "[3]; [12]", "result": 3}, {"measurement": "number of p53-positive cells", "setting": "[3]; [12]", "result": 799}, {"measurement": "intensity (p53 staining, IHC)", "setting": "[3]; [13]", "result": 3}, {"measurement": "number of p53-positive cells", "setting": "[3]; [13]", "result": 770}, {"measurement": "intensity (p53 staining, IHC)", "setting": "[3]; [14]", "result": 3}, {"measurement": "number of p53-positive cells", "setting": "[3]; [14]", "result": "1,493"}, {"measurement": "number of p53-positive cells, UL compared with matching myometrium", "setting": "[3]; explants treated by nutlin-3", "result": "increased number of p53-positive cells"}, {"measurement": "intensity of p53 staining (IHC)", "setting": "[3]; explants treated by nutlin-3, concentration-dependent", "result": "clearly increased intensity"}]}
